Test results reported in patent US7595401B2, “Therapeutic compounds and their use in cancer” (Myriad Pharmaceuticals, Inc., priority 2006, dated 2009).

These compounds were tested on purified human Hsp90 (assay: Binding Assay: fluorescence polarization with BODIPY-labeled geldanamycin). Settings: 5 μM compound, BODIPY-GM 10 nM, Hsp90 30 nM.
Method in brief: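 Fluorescence polarization competition with BODIPY-geldanamycin (10 nM final) and human Hsp90 (30 nM final) in HEPES-KOH pH 7.3 buffer with molybdate, NP-40, DTT; 2% DMSO, overnight at room temperature. Read 485/530 nm; percent inhibition from mP normalized to DMSO controls, fluorescent-compound points excluded.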

% Inhibition at 5 μM Compound Concentration [%]	Compound
39	Nc1ncn(CC(c2ccccc2)C2CCCC2)c2nc(Sc3cc4c(cc3Br)OCO4)nc1-2 (stereo not drawn) [Example 102, 8-(6-bromo-benzo[1,3]dioxol-5-ylsulfanyl)-3-(2-cyclopentyl-2-phenyl-ethyl)-3H-purin-6-ylamine]
41	CCC(C)C(Cn1cnc(N)c2nc(Sc3cc(OC)ccc3OC)nc1-2)c1ccccc1 (stereo not drawn) [Example 106, 8-(2,5-dimethoxy-phenylsulfanyl)-3-(3-methyl-2-phenyl-pentyl)-3H-purin-6-ylamine]
0	COc1ccc(OC)c(Sc2nc3c(N)ncnc3n2CC(O)c2ccc(Cl)cc2Cl)c1 (stereo not drawn) [Example 107, 2-[6-Amino-8-(2,5-dimethoxy-phenylsulfanyl)-purin-9-yl]-1-(2,4-dichloro-phenyl)ethanol]
16	Nc1ncn(CCc2cccc(F)c2)c2nc(Sc3cc4c(cc3Br)OCO4)nc1-2 [Example 110, 8-(6-bromo-benzo[1,3]dioxol-5-ylsulfanyl)-3-[2-(3-fluoro-phenyl)-ethyl]-3H-purin-6-ylamine]
0	COc1ccc(OC)c(Sc2nc3c(N)ncn(CCc4cc(C)ccc4C)c-3n2)c1 [Example 116, 8-(2,5-dimethoxy-phenylsulfanyl)-3-[2-(2,5-dimethyl-phenyl)-ethyl]-3H-purin-6-ylamine]
54	CCOc1cc(CCn2c(Sc3cc4c(cc3Br)OCO4)nc3c(N)ncnc32)ccc1OC [Example 117, 8-(6-Bromo-benzo[1,3]dioxol-5-ylsulfanyl)-9-[2-(3-ethoxy-4-methoxy-phenyl)-ethyl]-9H-purin-6-ylamine]
0	CCOc1cc(CCn2cnc(N)c3nc(Sc4cc5c(cc4Br)OCO5)nc2-3)ccc1OC [Example 118, 8-(6-bromo-benzo[1,3]dioxol-5-ylsulfanyl)-3-[2-(3-ethoxy-4-methoxy-phenyl)-ethyl]-3H-purin-6-ylamine]
15	COc1ccc(OC)c(Sc2nc3c(N)ncnc3n2CC(c2ccc(Cl)cc2)C(C)C)c1 (stereo not drawn) [Example 119, 9-[2-(4-Chloro-phenyl)-3-methyl-butyl]-8-(2,5-dimethoxy-phenylsulfanyl)-9H-purine-6-ylamine]
0	COc1ccc(OC)c(Sc2nc3c(N)ncn(CC(c4ccc(Cl)cc4)C(C)C)c-3n2)c1 (stereo not drawn) [Example 120, 3-[2-(4-chloro-phenyl)-3-methyl-butyl]-8-(2,5-dimethoxy-phenylsulfanyl)-3H-purine-6-ylamine]
0	COc1ccc(OC)c(Sc2nc3c(N)ncn(CCc4c(F)cccc4Cl)c-3n2)c1 [Example 123, 3-[2-(2-chloro-6-fluoro-phenyl)-ethyl]-8-(2,5-dimethoxy-phenylsulfanyl)-3H-purine-6-ylamine]
12	Cc1ccc(C)c(CCn2cnc(N)c3nc(Sc4cc5c(cc4Br)OCO5)nc2-3)c1 [Example 125, 8-(6-bromo-benzo[1,3]dioxol-5-ylsulfanyl)-3-[2-(2,5-dimethyl-phenyl)-ethyl]-3H-purin-6-ylamine]
54	Nc1ncn(CCc2c(Cl)cccc2Cl)c2nc(Sc3cc4c(cc3Br)OCO4)nc1-2 [Example 129, 8-(6-bromo-benzo[1,3]dioxol-5-ylsulfanyl)-3-[2-(2,6-dichloro-phenyl)-ethyl]-3H-purin-6-ylamine]

More lines, now with the values behind:

Compound	% Inhibition at 5 μM Compound Concentration [%]
CCC(C)C(Cn1cnc(N)c2nc(Sc3cc4c(cc3Br)OCO4)nc1-2)c1ccccc1 (stereo not drawn) [Example 100, 8-(6-bromo-benzo[1,3]dioxol-5-ylsulfanyl)-3-(3-methyl-2-phenyl-pentyl)-3H-purin-6-ylamine]	39
COc1ccc(OC)c(Sc2nc3c(N)ncn(CC(c4ccccc4)C4CCCC4)c-3n2)c1 (stereo not drawn) [Example 104, 3-(2-cyclopentyl-2-phenyl-ethyl)-8-(2,5-dimethoxy-phenylsulfanyl)-3H-purin-6-ylamine]	38
COc1ccc(OC)c(Sc2nc3c(N)ncn(CC(O)c4ccc(Cl)cc4Cl)c-3n2)c1 (stereo not drawn) [Example 108, 2-[6-amino-8-(2,5-dimethoxy-phenylsulfanyl)-purin-3-yl]-1-(2,4-dichloro-phenyl)ethanol]	30
CCOc1cc(CCn2cnc(N)c3nc(Sc4cc(OC)ccc4OC)nc2-3)ccc1OC [Example 112, 8-(2,5-dimethoxy-phenylsulfanyl)-3-[2-(3-ethoxy-4-methoxy-phenyl)-ethyl]-3H-purin-6-ylamine]	0
COc1ccc(OC)c(Sc2nc3c(N)ncn(CC(c4ccccc4)C(C)C)c-3n2)c1 (stereo not drawn) [Example 114, 8-(2,5-dimethoxy-phenylsulfanyl)-3-(3-methyl-2-phenyl-butyl)-3H-purin-6-ylamine]	14
COc1ccc(OC)c(Sc2nc3c(N)ncnc3n2CCc2ccc(F)cc2F)c1 [Example 121, 9-[2-(2,4-Difluoro-phenyl)-ethyl]-8-(2,5-dimethoxy-phenylsulfanyl)-9H-purine-6-ylamine]	54
CC(C)C(Cn1cnc(N)c2nc(Sc3cc4c(cc3Br)OCO4)nc1-2)c1ccccc1 (stereo not drawn) [Example 127, 8-(6-bromo-benzo[1,3]dioxol-5-ylsulfanyl)-3-(3-methyl-2-phenyl-butyl)-3H-purin-6-ylamine]	51
Nc1ncn(CCc2c(F)cccc2Cl)c2nc(Sc3cc4c(cc3Br)OCO4)nc1-2 [Example 131, 8-(6-bromo-benzo[1,3]dioxol-5-ylsulfanyl)-3-[2-(2-chloro-6-fluoro-phenyl)-ethyl]-3H-purin-6-ylamine]	18
COc1ccc(OC)c(Sc2nc3c(N)ncnc3n2CCc2cc(C)cc(C)c2)c1 [Example 132, 8-(2,5-Dimethoxy-phenylsulfanyl)-9-[2-(3,5-dimethyl-phenyl)-ethyl]-9H-purine-6-ylamine]	54
COc1ccc(OC)c(Sc2nc3c(N)ncn(CCc4cc(C)cc(C)c4)c-3n2)c1 [Example 133, 8-(2,5-dimethoxy-phenylsulfanyl)-3-[2-(3,5-dimethyl-phenyl)-ethyl]-3H-purine-6-ylamine]	0

Same assay, conditions: BODIPY-GM 10 nM, Hsp90 30 nM

IC50 [nM]	Compound
> 1000	CCC(C)C(Cn1c(Sc2cc(OC)ccc2OC)nc2c(N)ncnc21)c1ccccc1 (stereo not drawn) [Example 105, 8-(2,5-Dimethoxy-phenylsulfanyl)-9-(3-methyl-2-phenyl-pentyl)-9H-purin-6-ylamine]
300	Nc1ncnc2c1nc(Sc1cc3c(cc1Br)OCO3)n2CCc1cccc(F)c1 [Example 109, 8-(6-Bromo-benzo[1,3]dioxol-5-ylsulfanyl)-9-[2-(3-fluoro-phenyl)-ethyl]-9H-purin-6-ylamine]
550	COc1ccc(OC)c(Sc2nc3c(N)ncnc3n2CC(c2ccccc2)C(C)C)c1 (stereo not drawn) [Example 113, 8-(2,5-Dimethoxy-phenylsulfanyl)-9-(3-methyl-2-phenyl-butyl)-9H-purin-6-ylamine]
300	CCOc1cc(CCn2c(Sc3cc4c(cc3Br)OCO4)nc3c(N)ncnc32)ccc1OC [Example 117, 8-(6-Bromo-benzo[1,3]dioxol-5-ylsulfanyl)-9-[2-(3-ethoxy-4-methoxy-phenyl)-ethyl]-9H-purin-6-ylamine]
85	COc1ccc(OC)c(Sc2nc3c(N)ncnc3n2CCc2c(F)cccc2Cl)c1 [Example 122, 9-[2-(2-chloro-6-fluoro-phenyl)-ethyl]-8-(2,5-dimethoxy-phenylsulfanyl)-9H-purine-6-ylamine]
66	Nc1ncnc2c1nc(Sc1cc3c(cc1Br)OCO3)n2CCc1c(Cl)cccc1Cl [Example 128, 8-(6-Bromo-benzo[1,3]dioxol-5-ylsulfanyl)-9-[2-(2,6-dichloro-phenyl)-ethyl]-9H-purin-6-ylamine]
40	Nc1ncnc2c1nc(Sc1cc3c(cc1Br)OCO3)n2CCc1c(F)cccc1Cl [Example 130, 8-(6-Bromo-benzo[1,3]dioxol-5-ylsulfanyl)-9-[2-(2-chloro-6-fluoro-phenyl)-ethyl]-9H-purin-6-ylamine]
> 3000	COc1ccc(OC)c(Sc2nc3c(N)ncnc3n2CCc2ccncc2)c1 [Example 134, 8-(2,5-Dimethoxy-phenylsulfanyl)-9-(2-pyridin-4-yl-ethyl)-9H-purin-6-ylamine]

Second part, the compound before the results:

Compound	IC50 [nM]
CCC(C)C(Cn1c(Sc2cc3c(cc2Br)OCO3)nc2c(N)ncnc21)c1ccccc1 (stereo not drawn) [Example 99, 8-(6-Bromo-benzo[1,3]dioxol-5-ylsulfanyl)-9-(3-methyl-2-phenyl-pentyl)-9H-purin-6-ylamine]	300
Nc1ncnc2c1nc(Sc1cc3c(cc1Br)OCO3)n2CC(c1ccccc1)C1CCCC1 (stereo not drawn) [Example 101, 8-(6-Bromo-benzo[1,3]dioxol-5-ylsulfanyl)-9-(2-cyclopentyl-2-phenyl-ethyl)-9H-purin-6-ylamine]	> 3000
COc1ccc(OC)c(Sc2nc3c(N)ncnc3n2CC(c2ccccc2)C2CCCC2)c1 (stereo not drawn) [Example 103, 9-(2-Cyclopentyl-2-phenyl-ethyl)-8-(2,5-dimethoxy-phenylsulfanyl)-9H-purin-6-ylamine]	> 1000
CCOc1cc(CCn2c(Sc3cc(OC)ccc3OC)nc3c(N)ncnc32)ccc1OC [Example 111, 8-(2,5-Dimethoxy-phenylsulfanyl)-9-[2-(3-ethoxy-4-methoxy-phenyl)-ethyl]-9H-purin-6-ylamine]	10000
COc1ccc(OC)c(Sc2nc3c(N)ncnc3n2CCc2cc(C)ccc2C)c1 [Example 115, 8-(2,5-Dimethoxy-phenylsulfanyl)-9-[2-(2,5-dimethyl-phenyl)-ethyl]-9H-purin-6-ylamine]	110
COc1ccc(OC)c(Sc2nc3c(N)ncnc3n2CCc2ccc(F)cc2F)c1 [Example 121, 9-[2-(2,4-Difluoro-phenyl)-ethyl]-8-(2,5-dimethoxy-phenylsulfanyl)-9H-purine-6-ylamine]	520
Cc1ccc(C)c(CCn2c(Sc3cc4c(cc3Br)OCO4)nc3c(N)ncnc32)c1 [Example 124, 8-(6-Bromo-benzo[1,3]dioxol-5-ylsulfanyl)-9-[2-(2,5-dimethyl-phenyl)-ethyl]-9H-purin-6-ylamine]	220
CC(C)C(Cn1c(Sc2cc3c(cc2Br)OCO3)nc2c(N)ncnc21)c1ccccc1 (stereo not drawn) [Example 126, 8-(6-Bromo-benzo[1,3]dioxol-5-ylsulfanyl)-9-(3-methyl-2-phenyl-butyl)-9H-purin-6-ylamine]	300
COc1ccc(OC)c(Sc2nc3c(N)ncnc3n2CCc2cc(C)cc(C)c2)c1 [Example 132, 8-(2,5-Dimethoxy-phenylsulfanyl)-9-[2-(3,5-dimethyl-phenyl)-ethyl]-9H-purine-6-ylamine]	500
